In PubChem BioAssay (NCI):
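Method: 48-hour compound exposure of cells in 96-well plates, five concentrations, linear interpolation of endpoints. TGI denotes the concentration required for complete inhibition of growth.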

Assays:
Experiment in all cases: DTP human tumour cell line panel, 48 h
786-0 renal = test system: 786-0 renal
A498 renal = test system: A498 renal
A549 NSCLC = test system: A549 NSCLC
ACHN renal = test system: ACHN renal
COLO 205 colon = test system: COLO 205 colon
DLD-1 colon = test system: DLD-1 colon
DMS 114 small cell lung = test system: DMS 114 small cell lung
DMS 273 small cell lung = test system: DMS 273 small cell lung
EKVX NSCLC = test system: EKVX NSCLC
HCC-2998 colon = test system: HCC-2998 colon
HCT-116 colon = test system: HCT-116 colon
HCT-15 colon = test system: HCT-15 colon
HL-60(TB) leukemia = test system: HL-60(TB) leukemia
HOP-18 NSCLC = test system: HOP-18 NSCLC
HOP-62 NSCLC = test system: HOP-62 NSCLC
HOP-92 NSCLC = test system: HOP-92 NSCLC
HT29 colon = test system: HT29 colon
IGROV1 ovarian = test system: IGROV1 ovarian
K-562 leukemia = test system: K-562 leukemia
KM12 colon = test system: KM12 colon
KM20L2 colon = test system: KM20L2 colon
LOX IMVI melanoma = test system: LOX IMVI melanoma
LXFL 529 NSCLC = test system: LXFL 529 NSCLC
M14 melanoma = test system: M14 melanoma
M19-MEL melanoma = test system: M19-MEL melanoma
MALME-3M melanoma = test system: MALME-3M melanoma
NCI-H23 lung = test system: NCI-H23 lung
NCI-H460 lung = test system: NCI-H460 lung
NCI-H522 lung = test system: NCI-H522 lung
OVCAR-3 ovarian = test system: OVCAR-3 ovarian
OVCAR-4 ovarian = test system: OVCAR-4 ovarian
OVCAR-5 ovarian = test system: OVCAR-5 ovarian
RPMI-8226 leukemia = test system: RPMI-8226 leukemia
RXF 393 renal = test system: RXF 393 renal
SF-268 CNS = test system: SF-268 CNS
SF-295 CNS = test system: SF-295 CNS
SF-539 CNS = test system: SF-539 CNS
SK-MEL-2 melanoma = test system: SK-MEL-2 melanoma
SK-MEL-28 melanoma = test system: SK-MEL-28 melanoma
SK-MEL-5 melanoma = test system: SK-MEL-5 melanoma
SK-OV-3 ovarian = test system: SK-OV-3 ovarian
SN12C renal = test system: SN12C renal
SNB-19 CNS = test system: SNB-19 CNS
SNB-75 CNS = test system: SNB-75 CNS
SNB-78 CNS = test system: SNB-78 CNS
SR leukemia = test system: SR leukemia
SW-620 colon = test system: SW-620 colon
TK-10 renal = test system: TK-10 renal
U251 CNS = test system: U251 CNS
UACC-257 melanoma = test system: UACC-257 melanoma
UACC-62 melanoma = test system: UACC-62 melanoma
UO-31 renal = test system: UO-31 renal
CAKI-1 renal = test system: CAKI-1 renal
CCRF-CEM leukemia = test system: CCRF-CEM leukemia
MOLT-4 leukemia = test system: MOLT-4 leukemia
NCI-H226 lung = test system: NCI-H226 lung
OVCAR-8 ovarian = test system: OVCAR-8 ovarian

Cc1nn(-c2nc3ccccc3s2)c2c1C(=O)c1ccccc1-2 was tested, and the TGI (786-0 renal) was > 100 µM, the TGI (A498 renal) was > 100 µM and the TGI (A549 NSCLC) was > 100 µM. The TGI (ACHN renal) was > 100 µM, the TGI (COLO 205 colon) was > 100 µM and the TGI (DLD-1 colon) was > 100 µM. The TGI (DMS 114 small cell lung) was > 100 µM, the TGI (DMS 273 small cell lung) was > 100 µM and the TGI (EKVX NSCLC) was > 100 µM. The TGI (HCC-2998 colon) was > 100 µM, the TGI (HCT-116 colon) was > 100 µM and the TGI (HCT-15 colon) was > 100 µM. For the same compound, the TGI (HL-60(TB) leukemia) was > 100 µM, the TGI (HOP-18 NSCLC) was > 100 µM and the TGI (HOP-62 NSCLC) was > 100 µM. For the same compound, the TGI (HOP-92 NSCLC) was > 100 µM, the TGI (HT29 colon) was > 100 µM and the TGI (IGROV1 ovarian) was > 100 µM. For the same compound, the TGI (K-562 leukemia) was > 100 µM, the TGI (KM12 colon) was > 100 µM and the TGI (KM20L2 colon) was > 100 µM. For the same compound, the TGI (LOX IMVI melanoma) was > 100 µM, the TGI (LXFL 529 NSCLC) was > 100 µM and the TGI (M14 melanoma) was > 100 µM. The TGI (M19-MEL melanoma) was > 100 µM, the TGI (MALME-3M melanoma) was > 100 µM and the TGI (NCI-H23 lung) was > 100 µM. For the same compound, the TGI (NCI-H460 lung) was > 100 µM, the TGI (NCI-H522 lung) was > 100 µM and the TGI (OVCAR-3 ovarian) was > 100 µM. For the same compound, the TGI (OVCAR-4 ovarian) was 64.1 µM, the TGI (OVCAR-5 ovarian) was > 100 µM and the TGI (RPMI-8226 leukemia) was > 100 µM. The TGI (RXF 393 renal) was > 100 µM, the TGI (SF-268 CNS) was > 100 µM and the TGI (SF-295 CNS) was > 100 µM. The TGI (SF-539 CNS) was > 100 µM, the TGI (SK-MEL-2 melanoma) was > 100 µM and the TGI (SK-MEL-28 melanoma) was > 100 µM. For the same compound, the TGI (SK-MEL-5 melanoma) was > 100 µM, the TGI (SK-OV-3 ovarian) was > 100 µM and the TGI (SN12C renal) was > 100 µM. The TGI (SNB-19 CNS) was > 100 µM, the TGI (SNB-75 CNS) was > 100 µM and the TGI (SNB-78 CNS) was > 100 µM. For the same compound, the TGI (SR leukemia) was > 100 µM, the TGI (SW-620 colon) was > 100 µM and the TGI (TK-10 renal) was > 100 µM. For the same compound, the TGI (U251 CNS) was > 100 µM, the TGI (UACC-257 melanoma) was > 100 µM and the TGI (UACC-62 melanoma) was > 100 µM. The TGI (UO-31 renal) was > 100 µM.
COc1cc(/C=C2\C(=O)N(C(=O)c3ccc(NC(C)=O)cc3)N=C2C)ccc1O was tested, and the TGI (786-0 renal) was > 100 µM, the TGI (A549 NSCLC) was > 100 µM and the TGI (ACHN renal) was > 100 µM. The TGI (CAKI-1 renal) was > 100 µM, the TGI (CCRF-CEM leukemia) was > 100 µM and the TGI (COLO 205 colon) was > 100 µM. The TGI (DLD-1 colon) was > 100 µM, the TGI (DMS 114 small cell lung) was > 100 µM and the TGI (DMS 273 small cell lung) was > 100 µM. For the same compound, the TGI (EKVX NSCLC) was > 100 µM, the TGI (HCC-2998 colon) was > 100 µM and the TGI (HCT-116 colon) was > 100 µM. For the same compound, the TGI (HL-60(TB) leukemia) was > 100 µM, the TGI (HOP-18 NSCLC) was > 100 µM and the TGI (HOP-62 NSCLC) was > 100 µM. For the same compound, the TGI (HT29 colon) was > 100 µM, the TGI (K-562 leukemia) was > 100 µM and the TGI (KM12 colon) was > 100 µM. The TGI (LOX IMVI melanoma) was > 100 µM, the TGI (M14 melanoma) was > 100 µM and the TGI (M19-MEL melanoma) was > 100 µM. For the same compound, the TGI (MALME-3M melanoma) was > 100 µM, the TGI (MOLT-4 leukemia) was > 100 µM and the TGI (NCI-H226 lung) was > 100 µM. The TGI (NCI-H23 lung) was > 100 µM, the TGI (NCI-H460 lung) was > 100 µM and the TGI (NCI-H522 lung) was > 100 µM. For the same compound, the TGI (OVCAR-3 ovarian) was > 100 µM, the TGI (OVCAR-4 ovarian) was > 100 µM and the TGI (OVCAR-5 ovarian) was > 100 µM. The TGI (OVCAR-8 ovarian) was > 100 µM, the TGI (RPMI-8226 leukemia) was > 100 µM and the TGI (SF-268 CNS) was > 100 µM. The TGI (SF-295 CNS) was > 100 µM, the TGI (SF-539 CNS) was > 100 µM and the TGI (SK-MEL-28 melanoma) was > 100 µM. For the same compound, the TGI (SK-MEL-5 melanoma) was > 100 µM, the TGI (SN12C renal) was > 100 µM and the TGI (SNB-19 CNS) was > 100 µM. The TGI (SNB-75 CNS) was > 100 µM, the TGI (SNB-78 CNS) was > 100 µM and the TGI (SR leukemia) was > 100 µM. The TGI (SW-620 colon) was > 100 µM, the TGI (TK-10 renal) was > 100 µM and the TGI (UACC-257 melanoma) was > 100 µM. For the same compound, the TGI (UO-31 renal) was > 100 µM.
